Measurements published in patent publication US20210032205A1, “HETEROARYL SULFONAMIDE COMPOUND AND FORMULATION FOR CONTROLLING HARMFUL ORGANISMS” (Nippon Soda Co., Ltd., priority 2018, published 2021).

Experiments:
Plutella xylostella = assay: Efficacy test against Plutella xylostella (cabbage leaf dip); format: in vivo; conditions: foliar, 72 h, cabbage leaves soaked 30 seconds, second-instar larvae, 3 days after release, 25° C., read-out: mortality rate (efficacy test against Plutella xylostella; sentence prints Spodoptera litura)
Description: (§1) Five parts of the compound of the present invention, 93.6 parts of dimethylformamide and 1.4 parts of a polyoxyethylene alkyl aryl ether were mixed together and dissolved to obtain an emulsion (I) containing 5% of the active ingredient.
(§2) The mortality rate was calculated using the following equation.
(§3) Mortality rate (%)=(number of dead insects/number of test insects)×100
(§4) The emulsion (I) was diluted with water to achieve a concentration of the compound of the present invention of 125 ppm. Cabbage leaves were soaked in the diluted liquid for 30 seconds. These cabbage leaves were then placed in a Petri dish, and five second-instar larvae of Plutella xylostella were released into the dish. The Petri dish closed with a lid was placed in a thermostatic chamber at a temperature of 25° C. and a humidity of 60%. Mortality was investigated 3 days after larvae release, and the mortality rate was calculated. The test was repeated.

Mythimna separata = assay: Efficacy test against Mythimna separata (artificial feed); format: in vivo; conditions: second-instar larvae; 1 μl of 5% emulsion (I) in 0.8 g artificial feed; 5 days at 25° C.
Description: as §1
An emulsion (II) containing 0% of an active ingredient was prepared in the same method as that described above, with the exception that 5 parts of the compound of the present invention was not mixed and dissolved.
as §2, §3
First, 0.8 g of an artificial feed (Insecta LFS, manufactured by Nosan Corporation) and 1 μl of the emulsion (I) were mixed thoroughly, and 0.2 g of the resulting mixture was placed in each of the treatment areas of a plastic test container (volume: 1.4 ml) to complete preparation of a test feed. Two second-instar larvae of Mythimna separata were inoculated into each treatment area, and the plastic test container was sealed with a plastic lid. The sealed container was placed for 5 days in a thermostatic chamber at 25° C. Subsequently, the mortality rate and the amount of feed consumed were checked. In addition, a test for a control area was carried out under the same conditions as those described above, with the exception of replacing the emulsion (I) with the emulsion (II). The test was repeated in both cases.

Meloidogyne incognita = assay: Efficacy test against Meloidogyne incognita (in vitro test); format: in vivo; conditions: 48 h, second-instar larvae (L2), 2 days at 15° C., 96-well microplate, read-out: nematode mortality rate against Meloidogyne incognita
Description: (§5) A suspension containing about 50 second-instar larvae (L2) of Meloidogyne incognita per 0.2 mL was prepared. The compound of the present invention was dissolved in DMSO, so that a DMSO solution containing the compound at a concentration of 10,000 ppm was prepared. 200 μL of the suspension mentioned above per well and 1.0 μL of the DMSO solution of the compound mentioned above per well were dispensed into each well of a 96-well microplate. The final concentration of the compound of the present invention per well was 50 ppm. The 96-well microplate was placed for 2 days at 15° C. Subsequently, mortality was investigated, and the nematode mortality rate was calculated. […] The test was repeated.

Spodoptera litura = assay: Efficacy test against Spodoptera litura (cabbage leaf dip); format: in vivo; conditions: foliar, 144 h, cabbage leaves soaked 30 seconds, second-instar larvae, 6 days after release, 25° C., read-out: mortality rate against Spodoptera litura
Description: as §1, §2, §3
as §4, with “of Spodoptera litura” for “of Plutella xylostella”, “investigated 6” for “investigated 3”

Heterodera glycines = assay: Efficacy test against Heterodera glycines (in vitro test); format: in vivo; conditions: 72 h, second-instar larvae (L2), 3 days at 25° C., 96-well microplate, read-out: nematode mortality rate against Heterodera glycines
Description: as §5, with “of Heterodera glycines” for “of Meloidogyne incognita”, “[…]” for “10,000 ppm”, “and 0.2” for “and 1.0”, “was 10” for “was 50”, “for 3” for “for 2”, “at 25°” for “at 15°”

Caenorhabditis elegans = assay: Efficacy test against Caenorhabditis elegans (in vitro test); format: in vivo; conditions: 48 h, mixed instars, 2 days at 25° C., 96-well microplate, read-out: nematode mortality rate against Caenorhabditis elegans
Description: as §5, with “50 mixed instars” for “50 second-instar larvae (L2)”, “of Caenorhabditis elegans” for “of Meloidogyne incognita”, “[…]” for “10,000 ppm”, “at 25°” for “at 15°”

SMILES | mortality at 125 ppm (Plutella xylostella) [%] | mortality rate against Mythimna separata (Mythimna separata) [%] | mortality at 50 ppm (Meloidogyne incognita) [%] | mortality at 125 ppm (Spodoptera litura) [%] | mortality at 10 ppm (Heterodera glycines) [%] | mortality at 50 ppm (Caenorhabditis elegans) [%] | melting point [°C]
O=C(Nc1ccc(C(F)(F)F)cc1)c1ncc(C(F)(F)F)cc1NS(=O)(=O)C(F)(F)F [Compound A-2] | ≥ 80 | 100 | ≥ 80 | ≥ 80 | – | – | –
O=C(Nc1cc(F)c(F)cc1-n1cccn1)c1sc(Cl)cc1NS(=O)(=O)C(F)(F)F [Compound A-6] | – | 100 | ≥ 80 | – | – | – | –
O=C(Nc1ccc(F)c(F)c1)c1cnc(Cl)cc1NS(=O)(=O)C(F)(F)F [Compound A-7] | – | 100 | ≥ 80 | – | ≥ 80 | ≥ 80 | –
O=C(Nc1ccc(C(F)(F)F)cc1)c1cnc(Cl)cc1NS(=O)(=O)C(F)(F)F [Compound A-1, 6-chloro-N-[4-(trifluoromethyl)phenyl]-4-(trifluoromethylsulfonylamino)pyridine-3-carboxamide] | ≥ 80 | 100 | ≥ 80 | ≥ 80 | ≥ 80 | ≥ 80 | –
O=C(Nc1ccc(C(F)(F)F)cc1)c1cc(Cl)ncc1NS(=O)(=O)C(F)(F)F [Compound A-5] | – | 100 | ≥ 80 | – | ≥ 80 | ≥ 80 | –
COC(=O)c1cc(F)c(F)cc1NC(=O)c1ncc(C(F)(F)F)cc1NS(=O)(=O)C(F)(F)F [Compound A-3] | – | – | – | – | – | – | 270
O=C(Nc1ccc(C(F)(F)F)cc1)c1ccc(Cl)nc1NS(=O)(=O)C(F)(F)F [Compound A-4] | ≥ 80 | 100 | ≥ 80 | ≥ 80 | – | – | –
